Experimental findings from patent publication US10206902B2, “Mono- or di-substituted indoles as dengue viral replication inhibitors” (priority 2014, dated 2019) are described below.

The structures appear in SMILES notation.

Format in all cases: cell-based
One assay deals with DENV-3 strain H87. Description: Tetravalent RT-qPCR assay Protocol A, serotype 3. The settings on record: Dengue virus, DENV3, 72 h, RT-qPCR serotype 3 H87, Vero cells, day 3. How it is done: (§1) The antiviral activity of the compounds of the invention was tested against DENV-1 strain TC974#666 (NCPV), DENV-2 strain 16681, DENV-3 strain H87 (NCPV) and DENV-4 strains H241 (NCPV) and EDEN (SG/06K2270DK1/2005; GenBank accession number QG398256) in a RT-qPCR assay. Therefore, Vero cells were infected with either DENV-1, or -2, or -3, or -4 in the presence or absence of test compounds. At day 3 post-infection, the cells were lysed and cell lysates were used to prepare cDNA of both a viral target (the 3′UTR of DENV; table 2) and a cellular reference gene (β-actin, table 2). Subsequently, a duplex real time PCR was performed on a Lightcycler480 instrument. The generated Cp value is inversely proportional to the amount of RNA expression of these targets. Inhibition of DENV replication by a test compound result in a shift of Cp's for the 3′UTR gene. On the other hand, if a test compound is toxic to the cells, a similar effect on β-actin expression will be observed. The comparative ΔΔCp method is used to calculate EC50, which is based on the relative gene expression of the target gene (3′UTR) normalized with the cellular housekeeping gene (β-actin). In addition, CC50 values were determined based on the Cp values acquired for the housekeeping gene β-actin.
(§2) The culture medium consisted of minimal essential medium supplemented with 2% of heat-inactivated fetal calf serum, 0.04% gentamycin (50 mg/mL) and 2 mM of L-glutamine. Vero cells, obtained from ECACC, were suspended in culture medium and 75 μL/well was added in 96-well plates (10000 cells/well), which already contain the antiviral compounds. Typically, these plates contain a 4-fold serial dilution of 9 dilution steps of the test compound at 200 times the final concentration in 100% DMSO (500 nL; final concentration range: 25 μM-0.00038 μM). In addition, each plate contains wells which are assigned as virus controls (containing cells and virus in the absence of compound) and cell controls (containing cells in the absence of virus and compound). Once the cells were added in the plates, the plates were incubated in a fully humidified incubator (37° C., 5% CO2) until the next day. Then, DENV-1 strain TC974#666, DENV-2 strain 16681, DENV-3 strain H87 or DENV-4 strains H241 or EDEN were added. […] In parallel, 25 μL of culture medium was added to the cell controls. Next, the plates were incubated for 3 days in a fully humidified incubator (37° C., 5% CO2). After 3 days, the supernatant was removed from the wells and the cells were washed twice with ice-cold PBS (˜100 μL). The cell pellets within the 96-well plates were stored at −80° C. for at least 1 day. Next, RNA was extracted using the Cells-to-CT™ lysis kit, according to the manufacture's guideline (Applied Biosystems). The cell lysates can be stored at −80° C. or immediately used in the reverse transcription step. In preparation of the reverse transcription step, mix A (table 3A) was prepared and 7.57 μL/well was dispensed in a 96-well plate. After addition of 5 μL of the cell lysates, a five minute denaturation step at 75° C. was performed (table 3B). Afterwards, 7.43 μL of mix B was added (table 3C) and the reverse transcription step was initiated (table 3D) to generate cDNA.
(§3) Finally, a RT-qPCR mix was prepared, mix C (table 4A), dispensed in 96-well LightCycler qPCR plates to which 3 μL of cDNA was added and the qPCR was performed according to the conditions in table 4B on a LightCycler 480. Using the LightCycler software and an in-house LIMS system, dose response curves for each compound were calculated and the half maximal effective concentration (EC50) and the half maximal cytotoxic concentration (CO50) were determined (Tables 6-9).

The next assay relates to DENV-4 strain EDEN. Description: Tetravalent RT-qPCR assay Protocol A, serotype 4 EDEN. The following applies: Dengue virus, DENV4, 72 h, RT-qPCR serotype 4 EDEN, Vero cells, day 3. How it is done:
as §1, §2, §3
On the technique in general: Quantitative PCR measures a nucleic acid by following its amplification.

Assay [1] deals with DENV-1 Djibouti strain D1/H/IMTSSA/98/606. Briefly: Tetravalent RT-qPCR assay Protocol B, serotype 1. The following applies: Dengue virus, DENV1, Vero, 168 h. As to the method: Vero cells (4×10^4) were seeded in 96-well plates. […] Following a 2 hour incubation period, the cell monolayer was washed 3 times with assay medium to remove residual, non-adsorbed virus and cultures were further incubated for either 4 days (DENV-2 NGC-Tongalike) or 7 days (DENV-1 Djibouti strain D1/H/IMTSSA/98/606, DENV-3 strain H87 prototype, DENV-4 strain H241′) in the presence of the inhibitor. Supernatant was harvested and viral RNA load was determined by real-time quantitative RT-PCR. The 50% effective concentration (EC50), which is defined as the compound concentration that is required to inhibit viral RNA replication by 50%, was determined using logarithmic interpolation (Tables 7 and 8). RNA was isolated from 100 μL supernatant with the NucleoSpin 96 Virus kit (Filter Service, Duren, Germany) as described by the manufacturer. The sequences of the TaqMan primers (DENV-For, DENV-Rev; Table 5) and TaqMan probes (DENV-Probe Table 5) were selected from non-structural gene 3 (NS3) or NS5, of the respective flaviviruses using Primer Express software (version 2.0; Applied Biosystems, Lennik, Belgium). The TaqMan probe was fluorescently labelled with 6-carboxyfluorescein (FAM) at the 5′ end as the reporter dye, and with minor groove binder (MGB) at the 3′ end as the quencher (Table 5). One-step, quantitative RT-PCR was performed in a total volume of 25 μL, containing 13.9375 μL H2O, 6.25 μL master mix (Eurogentec, Seraing, Belgium), 0.375 μL forward primer, 0.375 μL reverse primer, 1 μL probe, 0.0625 μL reverse transcriptase (Eurogentec) and 3 μL sample. RT-PCR was performed using the ABI 7500 Fast Real-Time PCR System (Applied Biosystems, Branchburg, N.J., USA) using the following conditions: 30 min at 48° C. and 10 min at 95° C., followed by 40 cycles of 15 s at 95° C. and 1 min at 60° C. The data was analyzed using the ABI PRISM 7500 SDS software (version 1.3.1; Applied Biosystems). For absolute quantification, standard curves were generated using 10-fold dilutions of template preparations of known concentrations.

A word on the EC50: it is the concentration needed to bring the measured effect to its halfway point. Higher therefore signals a need for much substance. `COc1cc(NC(C(=O)c2c[nH]c3cc(F)ccc23)c2ccc(F)cc2OC)cc(OCCO)c1` (single isomer, unassigned) [Compound 1A, 1-(6-fluoro-1H-indol-3-yl)-2-(4-fluoro-2-methoxyphenyl)-2-((3-(2-hydroxyethoxy)-5-methoxyphenyl)amino)ethanone]: the values for the 50% effective concentration (EC50) (with DENV-3 strain H87; in the assay with DENV-4 strain EDEN; in assay [1]) were 120 nM, 12 nM and 40 nM, respectively.
The like results for `COc1cc(NC(C(=O)c2c[nH]c3c(C)c(F)ccc23)c2ccc(F)cc2OC)cc(OCCO)c1` (single isomer, unassigned) [Compound 2B, 2-(4-fluoro-2-methoxyphenyl)-1-(6-fluoro-7-methyl-1H-indol-3-yl)-2-((3-(2-hydroxyethoxy)-5-methoxyphenyl)amino)ethanone] were, in that order, 110 nM, 11 nM and 41 nM.
Consider `COc1cc(NC(C(=O)c2c[nH]c3c(C)c(Cl)ccc23)c2ccc(F)cc2OC)cc(OCCO)c1` (single isomer, unassigned) [Compound 3A, 1-(6-chloro-7-methyl-1H-indol-3-yl)-2-(4-fluoro-2-methoxyphenyl)-2-((3-(2-hydroxyethoxy)-5-methoxyphenyl)amino)ethanone], for which the EC50 in the assay on DENV-3 strain H87 is 88 nM; in the assay with DENV-4 strain EDEN, 16 nM; in assay [1] it was 45 nM.
Turning to `COc1cc(NC(C(=O)c2c[nH]c3cc(Cl)ccc23)c2ccc(F)cc2OC)cc(OCCO)c1` (single isomer, unassigned) [Compound 4A, 1-(6-chloro-1H-indol-3-yl)-2-(4-fluoro-2-methoxyphenyl)-2-((3-(2-hydroxyethoxy)-5-methoxyphenyl)amino)ethanone], the EC50 turned out to be 140 nM in the assay on DENV-3 strain H87, 16 nM with DENV-4 strain EDEN and 27 nM in assay [1].
As for `COc1cc(NC(C(=O)c2c[nH]c3c(F)c(F)ccc23)c2ccc(F)cc2OC)cc(OCCO)c1` (single isomer, unassigned) [Compound 5B, 1-(6,7-difluoro-1H-indol-3-yl)-2-(4-fluoro-2-methoxyphenyl)-2-((3-(2-hydroxyethoxy)-5-methoxyphenyl)amino)ethanone], the results for the 50% effective concentration (EC50) (with DENV-3 strain H87; in the assay on DENV-4 strain EDEN; in assay [1]) were 190 nM, 24 nM and 65 nM, respectively.
For `COc1cc(NC(C(=O)c2c[nH]c3cc(OC)c(C)cc23)c2ccc(F)cc2OC)cc(OCCO)c1` (single isomer, unassigned) [Compound 6A, 2-(4-fluoro-2-methoxyphenyl)-2-((3-(2-hydroxyethoxy)-5-methoxyphenyl)amino)-1-(6-methoxy-5-methyl-1H-indol-3-yl)ethanone], the concentration for a half-maximal effect (EC50) was 130 nM in the assay on DENV-3 strain H87, 13 nM with DENV-4 strain EDEN and 21 nM in assay [1].
The like results for `COc1cc(NC(C(=O)c2c[nH]c3cc(OC)c(F)cc23)c2ccc(F)cc2OC)cc(OCCO)c1` (single isomer, unassigned) [Compound 7A, 2-(4-fluoro-2-methoxyphenyl)-1-(5-fluoro-6-methoxy-1H-indol-3-yl)-2-((3-(2-hydroxyethoxy)-5-methoxyphenyl)amino)ethanone] were, in that order, 190 nM, 23 nM and 55 nM.
Turning to `COc1cc(NC(C(=O)c2c[nH]c3c(Cl)c(OC)ccc23)c2ccc(F)cc2OC)cc(OCCO)c1` (single isomer, unassigned) [Compound 8A, 1-(7-chloro-6-methoxy-1H-indol-3-yl)-2-(4-fluoro-2-methoxyphenyl)-2-((3-(2-hydroxyethoxy)-5-methoxyphenyl)amino)ethanone], the 50% effective concentration (EC50) in the assay with DENV-3 strain H87 was 200 nM; in the assay with DENV-4 strain EDEN, 21 nM; in assay [1], 49 nM.
In the case of `COc1cc(NC(C(=O)c2c[nH]c3c(C)cc(F)cc23)c2ccc(F)cc2OC)cc(OCCO)c1` (single isomer, unassigned) [Compound 9B, 2-(4-fluoro-2-methoxyphenyl)-1-(5-fluoro-7-methyl-1H-indol-3-yl)-2-((3-(2-hydroxyethoxy)-5-methoxyphenyl)amino)ethanone], the EC50 with DENV-3 strain H87 came out at 190 nM; with DENV-4 strain EDEN, 20 nM; in assay [1] it was 42 nM.
With `COc1cc(NC(C(=O)c2c[nH]c3cc(F)c(F)cc23)c2ccc(F)cc2OC)cc(OCCO)c1` (single isomer, unassigned) [Compound 10B, 1-(5,6-difluoro-1H-indol-3-yl)-2-(4-fluoro-2-methoxy-phenyl)-2-((3-(2-hydroxyethoxy)-5-methoxyphenyl)amino)ethanone], the half-maximal effective concentration (EC50) in the assay with DENV-3 strain H87 is 130 nM; in the assay on DENV-4 strain EDEN, 20 nM; in assay [1], 52 nM.
As to `COc1cc(NC(C(=O)c2c[nH]c3c(C)c(OC)ccc23)c2ccc(F)cc2OC)cc(OCCO)c1` (single isomer, unassigned) [Compound 11A, 2-(4-fluoro-2-methoxyphenyl)-2-((3-(2-hydroxyethoxy)-5-methoxyphenyl)amino)-1-(6-methoxy-7-methyl-1H-indol-3-yl)ethanone], the EC50 with DENV-3 strain H87 stood at 85 nM; in the assay with DENV-4 strain EDEN, 15 nM; in assay [1], 23 nM.
As to `COc1cc(NC(C(=O)c2c[nH]c3c(F)cc(C)cc23)c2ccc(F)cc2OC)cc(OCCO)c1` (single isomer, unassigned) [Compound 12B, 2-(4-fluoro-2-methoxyphenyl)-1-(7-fluoro-5-methyl-1H-indol-3-yl)-2-((3-(2-hydroxyethoxy)-5-methoxyphenyl)amino)ethanone], the results for the concentration giving a half-maximal response (EC50) (in the assay with DENV-3 strain H87; with DENV-4 strain EDEN; in assay [1]) were 270 nM, 17 nM and 96 nM, respectively.
